Among the test systems are SW-620; IGROV-1; A498; KM12; Malme-3M; MCF7; EKVX; CAKI-1; NCI/ADR-RES; SK-MEL-2; UACC-62; Hs-578T; UO-31; NCI-H226; HOP-92; A549; HT-29; NCI-H522; DU-145; OVCAR-4.
Holding throughout (experiment): NCI-60 cell line screen, 48 h

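Where inhibition never reached the appropriate level, the endpoint shown equals the highest concentration tested. Otherwise, values were interpolated linearly from a five-concentration, 48-hour dose response in 96-well plates. GI50 marks 50% less growth.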 Active and inactive are the calls of the source. Cut-off read from the data, not from the text of the source: active = GI50 up to about 1.1 µM and inactive = higher.

With `COc1cc(C(c2ccc3c(c2)OCO3)N2C(=O)CCC2C(=O)O)cc(OC)c1OC` (stereo not given), the GI50 in the assay with SW-620, in the assay on IGROV-1, with A498, with KM12, with Malme-3M and with MCF7 was > 100 µM (inactive) each time. Further, the GI50 with EKVX, with CAKI-1, in the assay on NCI/ADR-RES, in the assay on SK-MEL-2, in the assay on UACC-62 and in the assay on Hs-578T was > 100 µM (inactive) throughout. Moreover, the GI50 with UO-31, in the assay on NCI-H226, with HOP-92, in the assay with A549, in the assay with HT-29 and in the assay on NCI-H522 was > 100 µM (inactive) each time. Also, the GI50 with DU-145 and in the assay with OVCAR-4 was > 100 µM (inactive) throughout.
Turning to `Nc1ccc2c(c1)N(C(=O)c1cc3cc(NC(=O)c4cc5ccccc5o4)ccc3[nH]1)CC2CCl` (stereo not given), the GI50 in the assay on SW-620 is 0.0973 µM (active); with IGROV-1 it was 0.108 µM (active); in the assay on A498 it was 0.16 µM (active); in the assay on KM12, 0.115 µM (active); in the assay on Malme-3M, 0.122 µM (active); with MCF7, 0.0221 µM (active). The GI50 is 0.262 µM (active) in the assay with EKVX; 0.0338 µM (active) in the assay with CAKI-1; 0.0332 µM (active) in the assay on NCI/ADR-RES; 0.0755 µM (active) with SK-MEL-2; 0.112 µM (active) in the assay on UACC-62; 0.293 µM (active) with Hs-578T. Further, the GI50 with UO-31 is 0.0296 µM (active); in the assay with NCI-H226, 0.13 µM (active); in the assay with HOP-92, 0.168 µM (active); in the assay on A549, 0.0299 µM (active); with HT-29, 0.129 µM (active); in the assay with NCI-H522 it was < 0.01 µM (active). For the same compound, the GI50 was 0.0254 µM (active) with DU-145 and 0.0605 µM (active) in the assay on OVCAR-4.
As to `CNC(=O)C(NC(=O)[C@H](CC(C)C)NC(=O)[C@@H](S)CCN1C(=O)N(C)C(C)(C)C1=O)C(C)(C)C` (stereo not given in full), the GI50 in the assay with SW-620, with IGROV-1, in the assay on A498, with KM12, in the assay on Malme-3M and with MCF7 was > 100 µM (inactive) throughout. The GI50 in the assay with EKVX, with CAKI-1, with NCI/ADR-RES, with SK-MEL-2, with UACC-62 and in the assay with Hs-578T was > 100 µM (inactive) throughout. Moreover, the GI50 in the assay with UO-31, with NCI-H226, in the assay with HOP-92, with A549, in the assay with HT-29 and with NCI-H522 was > 100 µM (inactive) throughout. Besides, the GI50 in the assay on DU-145 and in the assay with OVCAR-4 was > 100 µM (inactive) in each case.
With `CCOC(=O)CC[C@H](N)C(=O)N[C@@H](Cc1ccc(N(CCCl)CCCl)cc1)C(=O)OCC`, the GI50 in the assay with SW-620 was 0.977 µM (active); in the assay with IGROV-1, 1.56 µM (inactive); in the assay on A498 it was 17.7 µM (inactive); with KM12, 4.61 µM (inactive); in the assay with Malme-3M, 0.291 µM (active); in the assay on MCF7, 0.483 µM (active). Besides, the GI50 was 2.3 µM (inactive) in the assay on EKVX; 0.358 µM (active) in the assay on CAKI-1; 1.52 µM (inactive) in the assay with NCI/ADR-RES; 2.69 µM (inactive) with SK-MEL-2; 0.256 µM (active) with UACC-62; 2.16 µM (inactive) with Hs-578T. For the same compound, the GI50 was 0.807 µM (active) in the assay with UO-31; 11.1 µM (inactive) in the assay on NCI-H226; 0.475 µM (active) in the assay on HOP-92; 2.73 µM (inactive) with A549; 1.1 µM (active) with HT-29; 1.12 µM (active) in the assay on NCI-H522. Besides, the values for the GI50 in the assay with DU-145 and in the assay on OVCAR-4 were 0.324 µM (active) and 0.565 µM (active), respectively.
Consider `OC1c2ccccc2CCC1C(O)(C(F)(F)F)C(F)(F)F` (stereo not given), for which the GI50 in the assay on SW-620 is > 100 µM (inactive); in the assay with IGROV-1, > 100 µM (inactive); with A498 it was > 100 µM (inactive); in the assay with KM12, > 100 µM (inactive); in the assay with Malme-3M it was > 100 µM (inactive); with MCF7 it was 46.3 µM (inactive). The GI50 in the assay on EKVX, with CAKI-1, with NCI/ADR-RES, in the assay on SK-MEL-2, in the assay with UACC-62 and with Hs-578T was > 100 µM (inactive) throughout. Also, the GI50 in the assay on UO-31 was > 100 µM (inactive); in the assay with NCI-H226, 38.4 µM (inactive); in the assay on HOP-92, 35.1 µM (inactive); in the assay with A549, > 100 µM (inactive); in the assay on HT-29, > 100 µM (inactive); in the assay on NCI-H522, > 100 µM (inactive). The GI50 in the assay with DU-145 and with OVCAR-4 was > 100 µM (inactive) in each case.
Take `Cc1ccc(-c2c(-c3ccccc3)[nH]c(C)c2C(=O)ONC(=O)c2ccccc2)cc1`: the GI50 in the assay with SW-620 was 8.51 µM (inactive); in the assay with IGROV-1 it was 1.46 µM (inactive); in the assay with A498, 12.7 µM (inactive); with KM12, 9.68 µM (inactive); in the assay on Malme-3M, 11.4 µM (inactive); in the assay with MCF7, 4.84 µM (inactive). Also, the GI50 is 7.28 µM (inactive) with EKVX; 2.19 µM (inactive) with CAKI-1; 4.65 µM (inactive) in the assay with NCI/ADR-RES; 3.7 µM (inactive) in the assay with SK-MEL-2; 10.2 µM (inactive) in the assay with UACC-62; 2.01 µM (inactive) in the assay with Hs-578T. The GI50 in the assay with UO-31 is 0.303 µM (active); in the assay with NCI-H226, 7.24 µM (inactive); with HOP-92, 1.67 µM (inactive); with A549 it was 2.52 µM (inactive); in the assay on HT-29, 7.83 µM (inactive); with NCI-H522 it was 2.31 µM (inactive). In addition, the results for the GI50 in the assay on DU-145 and in the assay with OVCAR-4 were 1.82 µM (inactive) and 2.72 µM (inactive), respectively.
Turning to `COC(=O)C1CCC(=O)N1CN(C(C)=O)c1cccc(O)c1` (stereo not given), the GI50 in the assay with SW-620, with IGROV-1, with A498, in the assay with KM12, in the assay with Malme-3M and in the assay with MCF7 was > 100 µM (inactive) each time. Besides, the GI50 in the assay with EKVX, with CAKI-1, in the assay on NCI/ADR-RES, in the assay with SK-MEL-2, in the assay on UACC-62 and with Hs-578T was > 100 µM (inactive) throughout. Moreover, the GI50 in the assay on UO-31, with NCI-H226, with HOP-92, in the assay with A549, with HT-29 and in the assay with NCI-H522 was > 100 µM (inactive) throughout. Besides, the GI50 in the assay on DU-145 and in the assay on OVCAR-4 was > 100 µM (inactive) in each case.
Turning to `CCn1c(-c2ccc(OC(C)=O)cc2)c(C)c2cc(OC(C)=O)ccc21` [ZINDOXIFENE], the GI50 in the assay with SW-620 is 23.4 µM (inactive); with IGROV-1 it was 24 µM (inactive); in the assay on A498, 23.6 µM (inactive); with KM12, 12.9 µM (inactive); with Malme-3M it was 21.7 µM (inactive); with MCF7, 18 µM (inactive). The GI50 with EKVX was 17.9 µM (inactive); with CAKI-1, 24.3 µM (inactive); with NCI/ADR-RES, 24.9 µM (inactive); with SK-MEL-2, 18.5 µM (inactive); with UACC-62, 13.2 µM (inactive); in the assay with Hs-578T it was 13.9 µM (inactive). Moreover, the GI50 is 20.7 µM (inactive) in the assay on UO-31; 30.1 µM (inactive) in the assay on NCI-H226; 30.1 µM (inactive) in the assay on HOP-92; 15.4 µM (inactive) in the assay on A549; 29.5 µM (inactive) in the assay with HT-29; 17.4 µM (inactive) in the assay with NCI-H522. The GI50 was 18.5 µM (inactive) in the assay on DU-145 and 18.1 µM (inactive) in the assay on OVCAR-4.
As to `O=c1c2cc([N+](=O)[O-])ccc2n(Cc2ccccc2)n1Cc1ccccc1`, the GI50 in the assay with SW-620 was 17.4 µM (inactive); in the assay with IGROV-1, 20.8 µM (inactive); with A498 it was 15.9 µM (inactive); with KM12, 10.5 µM (inactive); with Malme-3M it was > 17.8 µM (inactive); with MCF7 it was 14 µM (inactive). In addition, the GI50 is 17.2 µM (inactive) with EKVX; 22.2 µM (inactive) in the assay with CAKI-1; 11.2 µM (inactive) with NCI/ADR-RES; 12.6 µM (inactive) in the assay on SK-MEL-2; 8.63 µM (inactive) with UACC-62; 16.3 µM (inactive) in the assay with Hs-578T. In addition, the GI50 was 12.4 µM (inactive) in the assay on UO-31; 12.7 µM (inactive) with NCI-H226; 14.2 µM (inactive) in the assay with HOP-92; 18.6 µM (inactive) with A549; 15.9 µM (inactive) in the assay on HT-29; 12 µM (inactive) in the assay on NCI-H522. Moreover, the results for the GI50 in the assay with DU-145 and in the assay on OVCAR-4 were 17.3 µM (inactive) and 12.3 µM (inactive), respectively.
Regarding `O=c1c2c3c(sc2nc2n1N=CN(c1ccc(F)cc1)C2)CCCC3`, the GI50 in the assay with SW-620, with IGROV-1, in the assay with A498, in the assay with KM12, with Malme-3M and in the assay on MCF7 was > 100 µM (inactive) throughout. Further, the GI50 in the assay with EKVX, in the assay with CAKI-1, in the assay with NCI/ADR-RES, in the assay on SK-MEL-2, in the assay with UACC-62 and in the assay on Hs-578T was > 100 µM (inactive) in each case. Also, the GI50 in the assay on UO-31, in the assay with NCI-H226, in the assay with HOP-92, in the assay on A549, in the assay with HT-29 and in the assay with NCI-H522 was > 100 µM (inactive) throughout. The GI50 in the assay with DU-145 and in the assay with OVCAR-4 was > 100 µM (inactive) in each case.

Source of the values: ChEMBL document CHEMBL1201862, “PubChem BioAssay data set” (2004).
